Assay results published in the supplement of paper PMC10307832.

Assays:
Test in all cases: relative viability (nuclei count vs DMSO), 5 days (fraction); higher = more cells survive
Decitabine + Alpelisib = compound: Nc1ncn([C@H]2C[C@H](O)[C@@H](CO)O2)c(=O)n1 [Decitabine] + Cc1nc(NC(=O)N2CCC[C@H]2C(N)=O)sc1-c1ccnc(C(C)(C)C(F)(F)F)c1 [Alpelisib] (partner 2 µM)
In short: (§1)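 Lung cancer cell lines in 1536-well plates were dosed by pin tool the day after seeding, either with one drug alone or with a fixed anchor-drug dose plus five library-drug doses (not always all listed) in √10 steps. After 5 days, cells were fixed and their nuclei stained in one step (final 0.05% Triton X-100, 1% formaldehyde, 1 ug/ml Hoechst), then counted on 4× images. Relative viability is the nuclei count in treated wells divided by that in vehicle wells. Values are medians of duplicate plates.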

Cediranib + Bortezomib = compound: COc1cc2c(Oc3ccc4[nH]c(C)cc4c3F)ncnc2cc1OCCCN1CCCC1 [Cediranib] + CC(C)C[C@H](NC(=O)[C@H](Cc1ccccc1)NC(=O)c1cnccn1)B(O)O [Bortezomib] (partner 0.002 µM)
In short: as §1

Cediranib + Pemetrexed = compound: COc1cc2c(Oc3ccc4[nH]c(C)cc4c3F)ncnc2cc1OCCCN1CCCC1 [Cediranib] + Nc1nc2[nH]cc(CCc3ccc(C(=O)N[C@@H](CCC(=O)O)C(=O)O)cc3)c2c(=O)[nH]1 [Pemetrexed] (partner 0.2 µM)
In short: as §1

Halofuginone + Foretinib = compound: O=C(C[C@H]1NCCC[C@@H]1O)Cn1cnc2cc(Br)c(Cl)cc2c1=O (racemic) [Halofuginone] + COc1cc2c(Oc3ccc(NC(=O)C4(C(=O)Nc5ccc(F)cc5)CC4)cc3F)ccnc2cc1OCCCN1CCOCC1 [Foretinib] (partner 0.25 µM)
In short: as §1

Cell Line	relative viability (Decitabine + Alpelisib; first compound 0.04 µM)	relative viability (Decitabine + Alpelisib; first compound 0.1265 µM)	relative viability (Decitabine + Alpelisib; first compound 0.4 µM)	relative viability (Decitabine + Alpelisib; first compound 1.265 µM)	relative viability (Decitabine + Alpelisib; first compound 4 µM)	relative viability (Cediranib + Bortezomib; first compound 0.04 µM)	relative viability (Cediranib + Bortezomib; first compound 0.1265 µM)	relative viability (Cediranib + Bortezomib; first compound 0.4 µM)	relative viability (Cediranib + Bortezomib; first compound 1.265 µM)	relative viability (Cediranib + Bortezomib; first compound 4 µM)	relative viability (Cediranib + Pemetrexed; first compound 0.04 µM)	relative viability (Cediranib + Pemetrexed; first compound 0.1265 µM)	relative viability (Cediranib + Pemetrexed; first compound 0.4 µM)	relative viability (Cediranib + Pemetrexed; first compound 1.265 µM)	relative viability (Cediranib + Pemetrexed; first compound 4 µM)	relative viability (Halofuginone + Foretinib; first compound 0.001 µM)	relative viability (Halofuginone + Foretinib; first compound 0.003162 µM)	relative viability (Halofuginone + Foretinib; first compound 0.01 µM)	relative viability (Halofuginone + Foretinib; first compound 0.03162 µM)	relative viability (Halofuginone + Foretinib; first compound 0.1 µM)
201T	1	1.08	1.12	0.949	0.923	1.16	1.19	1.09	1.05	1.09	0.344	0.314	0.327	0.359	0.355	1.09	1.09	0.931	0.558	0.193
LC-2-ad	0.726	0.742	0.681	0.378	0.304	1.09	1.04	0.973	1.03	0.959	0.289	0.3	0.278	0.298	0.275	0.928	0.973	0.866	1	0.497
NCI-H596	0.449	0.46	0.462	0.451	0.407	1.05	1.01	0.831	1	1.09	0.472	0.499	0.427	0.476	0.525	0.885	0.804	0.78	0.69	0.314
NCI-H1437	0.787	0.679	0.464	0.246	0.215	0.55	0.407	0.554	0.565	0.673	0.33	0.299	0.289	0.334	0.337	1.31	1.26	1.22	1.2	1.21
PC-3 [JPC-3]		0.773	0.581	0.493	0.479	0.844	0.829	0.844	0.924	0.809	1.03		1.08	1.17	0.96	1.02	1.04	0.981	0.996	1.08
SW 1573	0.7	0.912	0.61	0.274	0.298	1.1	1.04	0.899	1.05	1.09	0.981	0.954	0.844	0.826	0.908	0.959	1.05	0.945	0.943	0.762
NCI-H2228	0.479	0.41	0.453	0.298	0.201	1.16	1.09	0.991	1.35	1.14	0.351	0.346	0.359	0.325	0.325	0.908	1.08	0.777	0.325	0.146
COR-L 105	0.763	0.873	0.717	0.427	0.306		0.666	0.715	0.722	0.828	1.11	1.08	1.06	1.08	1.15	1.07	0.894	1.31	1.09	0.846
LU99A	0.466	0.7	0.625	0.504	0.389	1.27		1.12	0.942	1.17	0.173		0.172	0.2	0.17	0.8	0.725	0.817	0.814	0.768
H3255	0.222	0.579	0.358	0.428	0.436	0.808	0.842	0.776	0.731	0.814	0.588	0.542	0.567	0.533	0.54	0.748	0.849	0.825	1.01	0.856
NCI-H1734	0.5	0.615	0.535	0.399	0.324	0.831	0.814	0.806	0.837	1.24	0.472	0.409	0.412	0.425	0.425	0.961	0.809	0.831	0.751	0.485
NCI-H650	0.739	0.538	0.484	0.326	0.29	0.873	0.625	0.879	0.764	0.718	0.862	0.569	0.955	0.978	1.08	1.07	0.966	0.965	1.06	0.885
NCI-H1915	0.475	0.301	0.272	0.227	0.247	0.989	0.914	0.958	0.949	0.984	0.655	0.74	0.448	0.516	0.446	1.12	1.16	1.07	1.03	0.97
NCI-H2009	1	0.88	0.593	0.413	0.303	0.934	0.246	1.04	0.943	1.12	1.08	0.914	0.957	1.04	0.999	1.21	1.23	1.13	1.18	0.775
NCI-H1651	0.834	0.902	0.861	0.718	0.633	0.972	0.87	0.915	0.914	0.894	0.601	0.619	0.592	0.497	0.53	0.91	0.814	0.696	0.519	0.416
HOP-62	0.652	0.323	0.152	0.124	0.125	0.322		0.672	0.68	0.842	0.576	0.305	0.252	0.39	0.313	1.09	1.22	1.02	0.96	0.704

Cell Line	relative viability (Decitabine + Alpelisib; first compound 0.04 µM)	relative viability (Decitabine + Alpelisib; first compound 0.1265 µM)	relative viability (Decitabine + Alpelisib; first compound 0.4 µM)	relative viability (Decitabine + Alpelisib; first compound 1.265 µM)	relative viability (Decitabine + Alpelisib; first compound 4 µM)	relative viability (Cediranib + Bortezomib; first compound 0.04 µM)	relative viability (Cediranib + Bortezomib; first compound 0.1265 µM)	relative viability (Cediranib + Bortezomib; first compound 0.4 µM)	relative viability (Cediranib + Bortezomib; first compound 1.265 µM)	relative viability (Cediranib + Bortezomib; first compound 4 µM)	relative viability (Cediranib + Pemetrexed; first compound 0.04 µM)	relative viability (Cediranib + Pemetrexed; first compound 0.1265 µM)	relative viability (Cediranib + Pemetrexed; first compound 0.4 µM)	relative viability (Cediranib + Pemetrexed; first compound 1.265 µM)	relative viability (Cediranib + Pemetrexed; first compound 4 µM)	relative viability (Halofuginone + Foretinib; first compound 0.001 µM)	relative viability (Halofuginone + Foretinib; first compound 0.003162 µM)	relative viability (Halofuginone + Foretinib; first compound 0.01 µM)	relative viability (Halofuginone + Foretinib; first compound 0.03162 µM)	relative viability (Halofuginone + Foretinib; first compound 0.1 µM)
CAL-12T	0.686	0.997	0.793	0.514	0.34	0.88		0.931	1.07	1.12	1.03	1.29	1.14	1.13	1.03	1.33	1.21	1.08	1.41	0.898
LCLC-103H	0.888	0.958	0.487	0.858	0.64	0.989	1.12	0.921	1.14	1.11	0.502	0.477	0.514	0.427	0.475	0.871	0.768	0.813	0.749	0.848
NCI-H3122	0.666	0.774	0.732	0.709	0.528	0.996	0.967	1.01	1.06	1	0.227	0.238	0.191	0.203	0.216	0.931	0.946	0.963	0.96	0.987
PC-14	0.623	0.723	0.411	0.196	0.18	0.889	0.831	0.734	0.878	0.902	0.0843	0.143	0.13	0.131	0.146	0.937	0.977	0.859	0.903	0.8
BEN	0.943	0.908	0.651	0.564	0.426	0.872	0.432	0.861	0.559	0.724	0.921	0.549	0.693	0.501	0.786	0.71	0.815	0.889	0.646	0.242
EPLC-272H	0.723	0.688		0.606	0.525	0.997		0.923	0.794	0.949	0.361	0.345	0.375	0.37	0.282	0.792	0.742	0.736	0.78	0.72
HCC-827		0.426	0.356	0.279	0.311	1.03		0.967	1.11	1.08	0.31	0.235	0.231	0.259	0.259	1.03	0.974	0.962	1.1	0.947
NCI-H1993	0.775	0.725	0.629	0.699	0.634	1.07	1.32	1.08	1.07	1.05		0.581	0.627	0.49	0.585	0.911	0.749	0.727	0.772	0.734
NCI-H647	0.971	0.858	0.632	0.201	0.254	1.1	1.02	0.845	0.728	1.16	0.185	0.254	0.2	0.178	0.172	1.18	1.23	1.16	0.979	0.528
NCI-H460	0.425	0.575	0.348	0.268	0.191	1.06	1.23	1.01	0.987	1.39	0.0716	0.0662	0.0685	0.0585	0.0931	1.01	1.08	0.899	0.942	0.113
EMC-BAC-2	0.718	0.699	0.481	0.442	0.41	1.06	0.69	1.03	1.02	1.07	0.565	0.47	0.433	0.464	0.477	1.06	0.972	0.986	0.78	0.423
NCI-H23	0.604	0.391	0.275	0.218	0.238	1.07		0.938	0.907	1.32	0.602	0.693	0.525	0.692	0.699	1	0.919	0.852	0.991	0.478
A-427	0.695	0.462	0.303	0.265	0.232	0.998		0.972	0.925	1.01	0.921		0.955	0.962	1.08	0.979	1.03	1.02	1.06	0.915
NCI-H322M	0.659	0.613	0.71	0.498	0.403	1.29	1.56	1.32	1.24	1.28	0.64	0.684	0.592	0.648	0.572	0.896	0.948	0.913	0.833	0.374
COR-L23	0.412	0.346	0.311	0.225	0.213	0.944	1.05	0.867	0.969	1.18	0.203	0.209	0.2	0.214	0.202	1	0.996	1.02	0.904	0.353
NCI-H2085	0.767	0.617	0.554	0.379	0.433	1.1	1.05	0.956	0.97	0.954	0.892	1.06	0.864	0.812	0.9	0.935	0.937	0.974	1.22	0.59
